The results in this text go back to ChEMBL document CHEMBL2010637, “Synthesis and evaluation of triazolones as checkpoint kinase 1 inhibitors” (Bioorg Med Chem Lett, 2012).

Series [1] can be described thus: AUC in nude mouse. The following applies: plasma. It is filed as ADME, organism-based.
Series [2] in a line: Clearance in nude mouse. The format is ADME, organism-based. Conditions: in vivo.
Series [3] is described as follows: Half life in nude mouse. The format is ADME, organism-based. Conditions: in vivo.
Series [4] is described as follows: Volume of distribution at steady state in nude mouse. The format is ADME, organism-based. Conditions: in vivo, read-out: Vdss.
Series [5] is described as follows: Lipophilicity, Log D of the compound. It is filed as physicochemical. The following applies: octanol/water.

As for `O=c1[nH]nc2cc(CO)c3ccc(-c4ccc[nH]4)cc3n12`, the AUC in series [1] came to 5.47 µM·h. Moreover, the clearance in series [2] is 33 mL/min/kg. In series [3], this molecule gave a half-life of 1.8 h. Also, the Vd in series [4] came out at 3.4 L/kg. This molecule also had a logD in series [5] of 2.19.
